This assay relates to CEM cells HIV-1 protection, formazan growth assay. In words: NCI AIDS Antiviral Assay. To be noted: for IC50: measured here: growth of uninfected CEM cells. An outline of the steps:
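CEM (human) cells, HIV-1 infected vs uninfected, 5-point dosing, formazan growth read-out. Retest threshold 50% protection.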

Where “and” joins values, the source holds several entries; their conditions need not be identical. Equal values may be shown once. Calls of active or inactive are those of the source.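 How the source made its calls: active means compounds giving half or more protection of infected cells from virus-caused growth loss, again on retest; inactive means the rest.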

Usually EC50 stands for the concentration that produces a half-maximal response. The term IC50 denotes the concentration needed to halve the response being measured. A high value points to weaker potency. Regarding `COC(=O)C(=O)C(C(=O)C(=O)Nc1nc(=S)[nH][nH]1)c1nc2ccc([N+](=O)[O-])cc2[nH]c1=O` (centres undefined), the EC50 was > 282 µM and the IC50 is > 282 µM. On to `COc1cc2nncc(Cl)c2cc1OC`, for which the EC50 was > 95.5 µM and the IC50 amounted to 79.4 µM. In the case of `COc1ccc2c3c1OC1C4(OC)C=CC5(c6c(OC)ccc(O)c64)C(C2)N(C)CCC315` (centres undefined), the EC50 is > 100 µM and the IC50 is 53.7 µM. As to `CC(CN(C)C)OCCn1c2c(c3ccccc31)CCCC2` (centres undefined), the EC50 is > 200 µM and the IC50 stood at 13.5 µM. Turning to `O=P(O)(O)C1CCCC(P(=O)(O)O)N1` (centres undefined), the result was inactive.

Consider `CC[C@@H]1CC2CN3CCc4c([nH]c5cc(OC)c(OC)cc45)C(C(=O)OC)(C2)C13` (some centres undefined), for which the result was inactive. As for `O=C(N/N=C/c1ccc(O)c(S(=O)(=O)O)c1)C(=O)N/N=C/c1ccc(O)c(S(=O)(=O)O)c1`, the EC50 was > 100 µM and the IC50 was > 100 µM. `CC1(C)C(=O)C(C)(C)C(=O)C(C)(C)C1=O`: the outcome was inactive.

Regarding `CCN(CC)CCN(CC)C(=O)COc1cc2c(O)c3c(O)c(C)c4c(c13)C(=O)C(C)(O/C=C/C(OC)C(C)C(OC(C)=O)C(C)C(O)C(C)C(O)C(C)/C=C/C=C(\C)C(=O)N2)O4` (centres undefined), the EC50 is > 200 µM and the IC50 turned out to be 35.5 µM. In the same order, the values of `C1=NCCNCCNCCN=Cc2ccc(cc2)OCc2cccc(n2)COc2ccc1cc2` are > 50.1 µM and > 50.1 µM. Taken in the same sequence, the figures for `CC(=O)/C(=C\c1ccccc1)C(=O)Nc1ccccc1` were > 38 µM and > 38 µM. In the same order, the values of `COc1cc(-c2cc(=O)c3cc(Cl)cc(Cl)c3o2)cc(OC)c1OC` are > 100 µM and > 100 µM.

For the compound `COc1ccc2nc3ccc(OC)cc3c(S(=O)Cc3ccc([N+](=O)[O-])cc3)c2c1` (centres undefined), the EC50 is > 200 µM and the IC50 amounted to 3.24 µM. Take `CN1CC[C@@H](c2ccccc2)[C@@H](O)C1`: the outcome was inactive. As for `CCN(CCCl)CCCNc1c2ccccc2nc2ccc(OC)cc12`, the EC50 is > 20 µM and the IC50 was determined as 0.295 µM.

For `Cc1cc(C)c(S(=O)(=O)N(CCCN)OCCCN)c(C)c1`, the EC50 is > 200 µM and the IC50 came to 195 µM.

Turning to `CC(=O)On1c(-c2ccccc2)nc2ccccc2c1=S`, the EC50 was > 200 µM and the IC50 was 1.35 µM. `CCc1cc(-c2ccc(OC)cc2)c(C#N)c(=S)n1C1OC(COC(C)=O)C(OC(C)=O)C(OC(C)=O)C1OC(C)=O` (centres undefined): the EC50 was > 200 µM; the IC50 is 14.5 µM and 12.3 µM. Consider `Nc1nc2c(ncn2C2C=CC(CO)C2)c(=O)[nH]1` (centres undefined), for which the EC50 was 36.3 µM and the IC50 was 324 µM. In the same order, the values of `Cc1ccc2c(c1)C(=O)CC1CC(=O)c3ccccc3C21` (centres undefined) are > 200 µM and > 200 µM. In the same order, the values of `COc1cc(COC(=O)NC(Cc2cccs2)C(=O)O)c([N+](=O)[O-])cc1OC` (centres undefined) are > 603 µM and 427 µM.

Take `Cc1cc(C)c(C(=O)O)c(SSc2cc(C)cc(C)c2C(=O)O)c1`: the EC50 is 46.8 µM and the IC50 came to 123 µM. As to `Cc1cc(O)c(C=NC(=S)c2cccnc2)c(=O)o1`, the EC50 is > 200 µM and the IC50 was determined as 77.6 µM.

For the compound `CCOC(=O)/C(=C\c1cccc([N+](=O)[O-])c1)C(C)=O`, the outcome was inactive. For the compound `O=C(CC(=O)Nc1ccccc1Cl)NNC(Sc1ccccc1)c1cc(N=Nc2ccc(Br)cc2)ccc1O` (centres undefined), the EC50 was > 100 µM and the IC50 was 1.91 µM. Taken in the same sequence, the figures for `N#Cc1ccccc1Sc1ccccc1N` were > 158 µM and > 158 µM. Taken in the same sequence, the figures for `O=C(NC1CN2CCC1CC2)C(c1ccc(F)cc1)c1ccc(F)cc1` (centres undefined) were > 200 µM and 5.37 µM. In the same order, the values of `CSCCC(NC(=O)Cc1ccc(C(=O)c2ccccc2)cc1)C(=O)N1CCN(CCCCN2c3ccccc3Sc3cc(N=[N+]=[N-])ccc32)CC1` (centres undefined) are > 200 µM and 33.1 µM. Turning to `O=c1[nH]c2nc[nH]c2c(=O)n1C1CCCCC1`, the EC50 is > 200 µM and the IC50 was > 200 µM. Regarding `Cc1ccc(-c2nc(C)c(C(=O)Nc3ccc(Cl)cc3)s2)cc1`, the EC50 is > 200 µM and the IC50 is > 200 µM. `CCOC(=N)N1CCCCC1`: the EC50 is > 200 µM and the IC50 was > 200 µM. On to `COc1ccc(C2=C/C(=C3\C(=O)Oc4ccccc4C3=O)SS2)cc1`, for which the EC50 was > 200 µM and the IC50 is > 200 µM. Turning to `Nc1ncnc2c1nc(Br)n2C(C=O)OC(C=O)CO` (centres undefined), the outcome was inactive. On the same count and under the same terms, the same measure for `N#CC(C#N)=C1NC(=O)CC(=O)N1`: “inactive”. `CC(=O)c1cccc2c1CC1(C2)Cc2ccc3c(c2C1=O)CCC3` (centres undefined): the EC50 is > 200 µM and the IC50 was > 200 µM. As for `CC(C)=CCc1c(-c2ccc(O)cc2O)oc2c3c(cc(O)c2c1=O)OC(C)(C)C=C3`, the EC50 is > 17.4 µM and the IC50 was 13.8 µM.

On to `CCC1(c2ccc(OC)c(OC)c2)CCN2C(=O)C(O)CC21` (centres undefined), for which the EC50 is > 200 µM and the IC50 was > 200 µM. Regarding `O=[N+]([O-])/C(C(Cl)=C(Cl)Cl)=C(/Br)SCc1ccccc1`, the EC50 is > 20 µM and the IC50 was 0.575 µM. Take `COC[n+]1cc2cc(OC)c(OC)cc2c2ccc3cc(OC)c(OC)cc3c21`: the EC50 was > 31.6 µM and the IC50 is > 31.6 µM. Turning to `CC1=NN(C(=O)CC(=O)N(C(=O)c2ccccc2Cl)c2ccc(C)cc2)C(=O)C1N=Nc1ccc([N+](=O)[O-])cc1` (centres undefined), the EC50 is > 12.9 µM and the IC50 is > 12.9 µM.

As to `Cc1cc(=O)n(-c2cc3cccccc-3n2)[nH]1`, the result was inactive. For the compound `COc1cc(N2C(=O)C(=O)C3(CCCCC3)C2=O)cc(OC)c1OC`, the EC50 is > 200 µM and the IC50 is > 200 µM. Take `O=C1C(=O)c2ccccc2C(O)=C1Sc1ccccc1`: the EC50 is > 200 µM and the IC50 was 13.5 µM.

With `CC1=NN(c2nc(N)nc(NS(=O)(=O)c3cc(C)c(Cl)cc3S)n2)C(C)(C)C1`, the EC50 is 105 µM and the IC50 was 479 µM. Taken in the same sequence, the figures for `Cc1cc(NS(=O)(=O)c2ccc(Nc3c4ccccc4nc4c(C(=O)NC=O)cccc34)cc2)no1` were > 200 µM and 12.3 µM. In the same order, the values of `CC(=O)NNc1nc(C)c(C(/C=C/c2ccc3c(c2)OCO3)=N/NC(=O)c2ccncc2)s1` are > 50.1 µM and > 50.1 µM. In the same order, the values of `CCc1cc(=O)oc2c3c(cc(OC)c12)O[C@H](C)[C@@H](C)C3=O` are > 200 µM and 31.6 µM. Turning to `Cc1nn(C)c2nc(=O)n(C)c(=O)c-2[n+]1[O-]`, the EC50 is > 200 µM and the IC50 amounted to 26.9 µM. Taken in the same sequence, the figures for `Cc1nc2ccc(C(F)(F)F)cc2nc1Nc1ccc(Cl)c(Cl)c1` were > 17.8 µM and 11.5 µM. `CC(=O)c1c(O)n(-c2ccc(C)cc2)c(=O)c2c(N)n[nH]c12`: the EC50 is 100 µM and the IC50 came to 117 µM.

With `CCN(CC)CCN.[O-][Cl+3]([O-])([O-])[O-].[Pd+2].c1ccc(-c2ccccn2)nc1`, the EC50 is > 200 µM and the half-inhibitory concentration (IC50) worked out at 32.4 µM. Regarding `CC(=O)c1c(O)c2c(c(C(C)=O)c1O)OC(C)(C)C=C2`, the EC50 is > 9.55 µM and the IC50 was > 9.55 µM. As to `Cc1c(/C=N/NC(=S)Nc2ccc([N+](=O)[O-])cc2)c(=O)n(-c2ccccc2)n1C`, the EC50 was > 200 µM and the IC50 came out at 166 µM. As to `CC1(C)CN=C(Nc2ccc(Cl)cc2)S1`, the result was inactive. As to `N#Cc1nc(-c2cc([N+](=O)[O-])cc([N+](=O)[O-])c2)oc1N`, the EC50 was > 100 µM and the IC50 is > 100 µM. On to `C=CC12CCCCC1CC(C(=O)OC)=C(O)C2` (centres undefined), for which the result was inactive. Regarding `Cn1c(=O)c2c(nc(NCC[N+](C)(C)C)n2C)n(C)c1=O`, the result was inactive. On the same count and under the same terms, for `NC(=O)CCC(NCc1c2ccccc2[n+]([O-])c2ccccc12)C(=O)O` (centres undefined) the value was “inactive”.

As to `NC(=O)C(N)CC12CC3CC(CC(C3)C1)C2` (centres undefined), the EC50 is > 200 µM and the IC50 was 39.8 µM. Taken in the same sequence, the figures for `CC(=O)c1c(-c2ccc(Cl)cc2)c(C#N)c(=S)n(C2OC(CO)C(O)C(O)C2O)c1C` (centres undefined) were > 200 µM and 44.7 µM. As for `CCOC(=O)/C(C#N)=C/c1ccc([N+](=O)[O-])cc1`, the EC50 is > 21.4 µM and the IC50 is > 21.4 µM. For the compound `CSC1=NC(C(N)=O)C(N)N1C` (centres undefined), the EC50 was > 200 µM and the IC50 was > 200 µM. In the case of `COC1/C=C/OC2(C)Oc3c(C)c(O)c4c(O)c(c(/C=N/N5C(C)CN(Cc6ccc(O)cc6)CC5C)c(O)c4c3C2=O)NC(=O)C(C)=C/C=C/C(C)C(O)C(C)C(O)C(C)C(OC(C)=O)C1C` (centres undefined), the EC50 is > 200 µM and the IC50 was found to be 7.94 µM. Consider `Cc1ccc(S(=O)(=O)c2ccc(NC(=O)SCCC(=O)O)cc2)cc1`, for which the outcome was inactive.

The compound `CC1C2C=CC1C(c1c3ccc(=O)cc-3oc3cc(O)ccc13)C2C(=O)O` (centres undefined) registered an EC50 of 2.4 µM and an IC50 of 51.3 µM. In the same order, the values of `CN(C(=O)CC(=O)CP(=O)(c1ccccc1)c1ccccc1)c1ccccc1` are > 200 µM and 135 µM. Turning to `C/C(=N\NS(=O)(=O)c1ccc(C)cc1)C(CN(C)C)C(c1ccccc1)c1c(O)c2ccccc2oc1=O` (centres undefined), the EC50 is > 72.4 µM and the IC50 is > 72.4 µM.

Turning to `Cn1c(=O)nc2n(-c3cc(C(F)(F)F)cc(C(F)(F)F)c3)c3ccccc3nc-2c1=O`, the outcome was inactive. The same measure, in the same setting: for `CC1(C)S[C@H](c2ccccc2C(=O)O)N[C@@H]1CC(=O)O` the value was “inactive”. On to `C=C1CC2(OC1=O)c1ccccc1C=Cc1ccccc12`, for which the EC50 was > 26.3 µM and the IC50 was 4.57 µM. Taken in the same sequence, the figures for `CCCCCCNc1n[nH]c(=O)c2c1nnn2Cc1ccccc1` were > 200 µM and > 200 µM. For the compound `Cc1cccc(CP(Cc2cccc(C)c2)CC2(Cp3c4ccccc4c4ccccc43)COC2)c1`, the EC50 is > 2 µM and the IC50 worked out at 0.257 µM.
